Experimental data: patent US20260306460A1, “COMPOSITION FOR REMOVING AND INHIBITING SENESCENT CELLS, AND USES THEREOF” (LIFECEUTIX CO., LTD., priority 2023, published 2026)
*1 amine or outer side, *2 acyl side, *3 side chain or, on linkers, in order; H or OH if unused. Where a SMILES comes first, the peptide text is derived from it. Bridges are numbered along the chain shown (N, C = ends). [ ]: non-standard residue; d: D form. The star is where a group is joined. X1 = CC[C@H](C)[C@@H](N[*:1])[C@@H](O)CC(=O)O[C@H](C(=O)[C@H](C)C(=O)[*:2])C(C)C; NMeY = CN[C@@H](Cc1ccc(O)cc1)C(=O)O; dNMeL = CN[C@H](CC(C)C)C(=O)O; Pyruvoyl = CC(=O)C(=O)*

Assays:
[1] = test system: senescent cells; test: Viability of senescent cells (CellTiter-Glo), Example 17, Table 13; details: Homo sapiens, read-out: Survival (%)
Method: Cells induced to undergo senescence by doxorubicin treatment were treated with test compound at designated concentrations and measured using the CellTiter-Glo Luminescent Cell Viability Assay (Promega).

[2] = test system: senescent A549 cells; test: Viability of senescent A549 cells (CellTiter-Glo), Example 18, Table 15; details: Homo sapiens, A549, read-out: Survival (%)
Method: Senescence-induced cancer cells treated with doxorubicin were treated with the test compound at designated concentrations, and cell viability was measured using the CellTiter-Glo Luminescent Cell Viability Assay (Promega).

| Compound | viability at 1.1 µM [1] [%] | viability at 10 µM [1] [%] | viability at 1.1 µM [2] [%] | viability at 10 µM [2] [%] | viability at 30 µM [1] [%] | viability at 30 µM [2] [%] |
| --- | --- | --- | --- | --- | --- | --- |
| O=C1Nc2ccccc2/C1=C1/Nc2ccc(C(=O)NCC3CCN(C(=O)CCl)CC3)cc2C1=O [LX-5328] | 54.3 | 2 | 62.7 | 0.4 | – | – |
| CC(C)(C)OC(=O)NC1CCN(c2ccc(-c3cnc4[nH]cc(C(=O)C(=O)NCCc5ccccn5)c4c3)cn2)CC1 [LX-5341] | 99.1 | 48.5 | 94.6 | 55.4 | 3.5 | 13.7 |
| C#Cc1nc(C(=O)N2[C@@H](CCCC)Cc3cc(C=C)ccc3[C@@H]2c2ccc(NC34CC5CC(CC(C5)C3)C4)cc2)cs1 [LX-5362] | 42.5 | – | 61.8 | – | – | – |
| C[C@H]1Oc2cc(cnc2N)-c2c(nn(C)c2C#N)CN(C)C(=O)c2ccc(F)cc21 [LX-5449, Lorlatinib] | 89.1 | 44.1 | 91.3 | 44.3 | 8.7 | 2.4 |
| NC(=O)c1ccc(-c2cc3c(NC4CCS(=O)(=O)CC4)cccc3n2CC(F)(F)F)cc1 [LX-5904] | 103 | 25.9 | 95.4 | 45.2 | 2.2 | 10.9 |
| C=C(C#N)CNc1c(OC)ccc2ccc(-c3ccc(S(C)(=O)=O)cn3)cc12 [LX-5906] | 97.2 | 30.7 | 98.7 | 41.5 | 0.4 | 5.9 |
| C=C(CN1Cc2c(ccc3ccc(-c4cc(NC(C)=O)cc(OC)c4)cc23)C1=O)C(N)=O [LX-5907] | 95.5 | 19.5 | 91.8 | 39.4 | 1.7 | 14.4 |
| NS(=O)(=O)OC[C@@H]1C[C@@H](n2ccc3c(N[C@H]4CCc5ccccc54)ncnc32)C[C@@H]1O [LX-6202, Pevonedistat] | 1.5 | – | 53.3 | – | – | – |
| COc1cc(Nc2ncc3c(n2)-c2ccc(Cl)cc2C(c2c(F)cccc2OC)=NC3)ccc1C(=O)O [LX-6203, Alisertib] | 75.1 | 13.1 | 96.4 | 30.7 | – | 2.1 |
| CCN(CCCOc1ccc2c(Nc3cc(CC(=O)Nc4cccc(F)c4)n[nH]3)ncnc2c1)CCOP(=O)(O)O [LX-6205, Barasertib] | 3.8 | – | 57.4 | – | – | – |
| CC[C@@H]1C(=O)N(C)c2cnc(Nc3ccc(C(=O)N[C@H]4CC[C@H](N5CCN(CC6CC6)CC5)CC4)cc3OC)nc2N1C(C)C [LX-6207, Volasertib] | 68.7 | 8.6 | 88.2 | 41 | – | 9.4 |
| CC[C@H](C)[C@H]1NC(=O)[C@@H](NC(=O)[C@@H](CC(C)C)N(C)C(=O)[C@@H]2CCCN2C(=O)C(C)=O)[C@@H](C)OC(=O)[C@H](Cc2ccc(OC)cc2)N(C)C(=O)[C@@H]2CCCN2C(=O)[C@H](CC(C)C)NC(=O)[C@@H](C)C(=O)[C@H](C(C)C)OC(=O)C[C@@H]1O [LX-6212, Plitidepsin] (Pyruvoyl-P[dNMeL]T[X1]LP[NMeY](Me); ester 3-C) | 52.3 | – | 75.7 | 0.9 | – | – |
| Cc1cccc2c1NC(=O)[C@@H](NC(=O)[C@H](CCC(F)(F)F)[C@H](CCC(F)(F)F)C(N)=O)N=C2c1cccc(F)c1 [LX-6514] | 97.2 | 63.3 | 107 | 51.2 | 2.7 | 0.2 |
